Earlier results as cited in patent EP4759820A1, “METHOD FOR PRODUCING PEPTIDE COMPOUND USING STAND-ALONE-TYPE CONDENSING AGENT” (CHUGAI SEIYAKU KABUSHIKI KAISHA, priority 2023, dated 2025).

Conditions: conjugate acid of the base; water as solvent, 25°C; literature reference given with each value

SMILES | pKa
CN1CCOCC1 [N-methylmorpholine] | 7.38

Same assay, conditions: representative additives; water as solvent, 25°C; literature reference given with each value

SMILES | pKa
O=C1Cc2ccccc2N1O [HOI, 1-Hydroxyindolin-2-one] | 8.3
NC(=O)C(NO)C(=O)N(O)O (stereo not shown) [N',N'-Dihydroxy-2-(hydroxyamino)malonamide] | 7.7
CS(=O)(=O)C(=NO)[S+](N)[O-] (stereo not shown) [(Hydroxyimino)(methylsulfonyl)methanesulfinamide] | 9.4
NC(=O)C(=NO)C(N)=O [2-(Hydroxyimino)malonamide] | 9.4
NC(=O)C(=NO)c1ccc[nH]1 [2-(Hydroxyimino)-2-(1H-pyrrol-2-yl)acetamide] | 9.4
CCOC(=O)C(=NO)c1ncccn1 [Ethyl 2-(hydroxyimino)-2-(pyrimidin-2-yl)acetate] | 9.6
O=[N+]([O-])C(CCc1ccccc1)=NO [1-Nitro-3-phenylpropan-1-oneoxime] | 7.4
CN(C)[S+]([O-])C(=NO)c1ccccc1 (stereo not shown) [1-(Hydroxyimino)-N,N-dimethyl-1-phenylmethanesulfinamide] | 7.4
NC(=O)C(=NO)c1nccs1 [2(Hydroxyimino)-2-(thiazol-2-yl)acetamide] | 8.7
ON=C1c2ccccc2-c2ccccc21 [9H-Fluoren-9-one oxime] | 11.1
O=c1c2ncccc2ncn1O [HODhad, 3-Hydroxypyrido[3,2-d]pyrimidin-4(3H)-one] | 5.8
CCOC(=O)C(=NO)c1cccs1 [Ethyl 2-(hydroxyimino)-2-(thiophen-2-yl)acetate] | 9.6
CS(=O)(=O)C(=NO)C(N)=O [2-(Hydroxyimino)-2-(methylsulfonyl)acetamide] | 9.4
CN1C(=O)C(=NO)c2ccccc21 [3-(Hydroxyimino)-1-methylindolin-2-one] | 9.4
CC(C)(C)OC(=O)C(C#N)=NO [tert-Butyl 2-cyano-2-(hydroxyimino)acetate] | 4.60
C[n+]1ccccc1C(=NO)c1ccccn1.[I-] [2-((Hydroxyimino)(pyridin-2-yl)methyl)-1-methylpyridin-1-iumiodide] | 5.6
O=C1CCC(=O)N1O [HOSu, 1-Hydroxypyrrolidine-2,5-dione] | 7.7
CCOC(=O)C(=NO)c1cnccn1 [Ethyl 2-(hydroxyimino)-2-(pyrazin-2-yl)acetate] | 9.4
CCOC(=O)C(=NO)c1ccccn1 [Ethyl 2-(hydroxyimino)-2-(pyridine-2-yl)acetate] | 9.6
NC(=O)C(=NO)c1ccco1 [2-(Furan-2-yl)-2-(hydroxyimino)acetamide] | 9.4
ON=C1NCCN1 [Imidazolidin-2-one oxime] | 12.5
CCOC(=O)C(=NO)c1ccco1 [Ethyl 2-(furan-2-yl)-2-(hydroxyimino)acetate] | 9.6
CCOC(=O)C(=NO)S(=O)(=O)C(F)(F)F [Ethyl 2-(hydroxyimino)-2-((trifluoromethyl)sulfonyl)acetate] | 4.2

SMILES | pKa
ON=c1[nH]cc[nH]1 [1,3-Dihydro-2H-imidazol-2-one oxime] | 8.2
CC(=NO)C(C)=NO [Butane-2,3-dionedioxime] | 12.1
CCOC(=O)C(NO)[N+](=O)[O-] (stereo not shown) [Ethyl 2-(hydroxyamino)-2-nitroacetate] | 4.7
ON=c1[nH]cco1 [Oxazol-2(3H)-one oxime] | 6.6
ON=C1NCCO1 [Oxazolidin-2-one oxime] | 12.5
O=[N+]([O-])C(=NO)c1ccccc1 [Nitro(phenyl)methanone oxime] | 7.6
CCOC(=O)C(C#N)=NO [oxyma, ethyl 2-cyano-2-(hydroxyimino)acetate] | 4.60
NC(=NO)c1cnccn1 [N'-Hydroxypyrazine-2-carboximidamide] | 12.5
N#CC(=NO)c1ccccc1 [Hydroxyimino-2-phenylacetonitrile] | 8.2
NC(=O)C(=NO)c1cccs1 [2-(Hydroxyimino)-2-(thiophen-2-yl)acetamide] | 9.4
CCOC(=O)C(NO)C(=O)OCC [Diethyl 2-(hydroxyamino)malonate] | 7.2
C#CC(=NO)C(N)=O [2-(Hydroxyimino)but-3-ynamide] | 9.4
ON=C1c2ccccc2C(=NO)c2ccccc21 [Anthracene-9,10-dionedioxime] | 7.1
O=C1C(=NO)c2ccccc2N1c1ccccc1 [3-(Hydroxyimino)-1-phenylindoline-2-one] | 9.0
C#CC(=NO)C(=O)OCC [Ethyl 2-(hydroxyimino)but-3-ynoate] | 9.6
NC(=O)C(=NO)c1ncccn1 [2-(Hydroxyimino)-2-(pyrimidin-2-yl)acetamide] | 9.4
CC(C)OC(=O)C(=NO)C(=O)OC(C)C [Diisopropyl 2-(hydroxyimino)malonate] | 7.2
NC(=S)C(=NO)c1ncccn1 [2-(Hydroxyimino)-2-(pyrimidin-2-yl)ethanethioamide] | 10.5
NC(=O)C(=NO)c1cnccn1 [2-(Hydroxyimino)-2-(pyrazin-2-yl)acetamide] | 9.4
CCOC(=O)C(=NO)S(N)(=O)=O [Ethyl 2-(hydroxyimino)-2-sulfamoylacetate] | 5.8
CCOC(=O)C(=NO)c1ccc[nH]1 [Ethyl 2-(hydroxyimino)-(1H-pyrrol-2-yl)acetate] | 9.6
CCOC(=O)C(=NO)c1ccncc1 [Ethyl 2-(hydroxyimino)-2-(pyridine-4-yl)acetate] | 9.6
